Laboratory results as given in article PMC12794078, “Real-Time Binding Kinetics of Small Molecules to CA IX in Live Suspension Cells Using SPR Microscopy” (ACS Medicinal Chemistry Letters, 2025).
Where two headings read alike, the source gives them in different places.

Legend:
[1] = biological target: CA IX on live Ramos B cells (Homo sapiens, UniProt Q16790); assay: SPRM kinetic titration of small molecules on live Ramos B suspension cells (1:1 kinetic model, 600 ROIs)
Protocol: All cells were maintained in an incubator at 37 °C with 5% CO2 before seeding. For every experiment, cell viability was determined with Trypan blue using a TC20 cell counter (BioRad). PLL precoated SPRM sensor chips were prepared according to manufacturer’s protocol (Gibco, cat. # A3890401). 5K Ramos B cells at 99% viability were gently seeded onto PLL precoated SPRM sensor chips containing 600 μL of Mccoy medium 5A supplemented with 10% FBS and then incubated at 37 °C with 5% CO2. After 72 h of incubation, cells were washed with live cell imaging buffer (A59688DJ) twice and immediately followed by SPRM analysis. […] All experiments were performed with a commercially available Ramos B cell line.
SPRM is highly sensitive to ligand binding events on the cell membrane, which induces dielectric changes that are recorded as sensorgrams. Moreover, its high-resolution diffraction limited optics produces sensorgrams of subcellular response regions, enabling detailed evaluation of binding heterogeneity.
High resolution SPRM measurements were generated by uniformly segmenting the sensing area (600 μm × 450 μm area) into a virtual grid of 600 regions of interest (ROI). For every ROI, a 1:1 kinetic binding interaction model was applied. Bare area ROIs were subtracted as references from the cell area ROIs. The SPRM kinetic analysis results of all ROIs were aggregated for statistical analysis. ImageSPR software (Biosensing Instrument Inc., Tempe AZ) was used to generate the sensorgrams, fitting, and statistical analysis of binding interactions. ROIs that detected a response which fitted well to the kinetic interaction model were collectively plotted onto an isoaffinity scatter plot for statistical analysis of the binding heterogeneity (Figure ). Histograms extracted from the isoaffinity scatter plot were fit with Gaussian distributions to obtain mean values and standard deviations for the association rate (k a), dissociation rate (k d), and equilibrium dissociation constant (KD). Subsequently, those ROIs that observe binding responses were highlighted in red and overlaid onto the SPRM image to more clearly evaluate the extent of cell-specific and nonspecific binding.

CA II = settings: ex vitro purified CA II, published values; reference number not given; read-out: Reported values CA II; cited from earlier work
[2] = association rate, membrane-bound CA IX, live Ramos B cells
[3] = dissociation rate, membrane-bound CA IX, live Ramos B cells

**Q.** What does the source list for NS(=O)(=O)c1ccc(C(=O)O)cc1 [4-CBS, 4-Carboxybenzenesulfonamide]?
**A.** Kd ([1]; Batch 1): 870 nM; Kd ([1]; Batch 2): 1000 nM; Kd ([1]; Batch 3): 780 nM; Kd ([1]; SPRM results for CA IX): 870 nM

**Q.** What does the source list for CN(C)c1cccc2c(S(N)(=O)=O)cccc12 [Dansylamide]?
**A.** Kd (CA II): 760 nM; Kd ([1]; Batch 1, live Ramos B cells, experiment/batch 1): 586 nM; Kd ([1]; Batch 2, live Ramos B cells, experiment/batch 2): 542 nM; Kd ([1]; Batch 3, live Ramos B cells, experiment/batch 3): 534 nM; Kd ([1]; SPRM results for CA IX, membrane-bound CA IX, live Ramos B cells, Gaussian mean over ROIs): 586 nM; k a, SPRM results for CA IX [1, 2]: 2.53 × 10^03 M^–1 s^–1; kd, SPRM results for CA IX [1, 3]: 2.34 × 10^–03 s^–1

**Q.** Which “k a, SPRM results for CA IX” value [1, 2] does the source give for NS(=O)(=O)c1cc(C(=O)O)c(NCc2ccco2)cc1Cl [Furosemide] here?
**A.** Its value is 1.10 × 10^03 M^–1 s^–1.

**Q.** And the “kd, SPRM results for CA IX” value [1, 3]?
**A.** Its value is 1.16 × 10^–03 s^–1.

**Q.** With Nc1ccc(S(N)(=O)=O)cc1 [Sulfanilamide] as the compound, how does the “k a, SPRM results for CA IX” value [1] read?
**A.** Its value is 4.40 × 10^03 M^–1 s^–1.

**Q.** What about the “kd, SPRM results for CA IX” value [1] of the same compound?
**A.** Its value is 1.39 × 10^–03 s^–1.
